Patent publication US9573913B2, “Cathepsin cysteine protease inhibitors” (Merck Sharp & Dohme Corp., priority 2013, dated 2017)

Experiments:
human cathepsin F = biological target: T1, human cathepsin F (Homo sapiens, UniProt Q9UBX1); assay: Cathepsin F assay (hCat F); format: biochemical; details: Z-Phe-Arg-AMC substrate, pH 5.5, 15 min preincubation; read-out: hCat F (IP (nM))
T1 sequence (Q9UBX1 271-484): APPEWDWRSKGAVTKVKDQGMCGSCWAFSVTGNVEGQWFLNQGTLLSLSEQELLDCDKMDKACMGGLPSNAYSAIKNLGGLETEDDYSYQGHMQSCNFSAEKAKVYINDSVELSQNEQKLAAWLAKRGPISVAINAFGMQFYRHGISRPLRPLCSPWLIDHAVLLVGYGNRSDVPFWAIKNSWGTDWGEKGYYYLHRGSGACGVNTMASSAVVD
Method in brief: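 Enzyme (10 nM) was preincubated 15 min at room temperature with compounds (1/3 DMSO dilution series, 500–0.025 μM) in 50 mM MES pH 5.5, 2.5 mM EDTA, 2.5 mM DTT, 10% DMSO. Z-Phe-Arg-AMC (8 μM) was added and AMC fluorescence (Ex 360/Em 460 nm) followed for 20 min. % inhibition was fitted to dose-response curves.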

human cathepsin K = human cathepsin K (UniProt P43236); assay: Cathepsin K Assay (hrbCat K); format: biochemical; details: Z-Leu-Arg-AMC substrate, pH 5.5, 15 min preincubation; read-out: hrbCat K (IP (nM))
Method in brief: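 Human cathepsin K (0.4 nM) was preincubated 15 min at room temperature with compound in 50 mM MES pH 5.5, 2.5 mM EDTA, 2.5 mM DTT and 10% DMSO. Inhibition was fitted to a dose-response model.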

Structure (SMILES) | IC50 (human cathepsin F) [nM] | IC50 (human cathepsin K) [nM]
CN=S1(=O)CCN(c2ccc(-c3oc(C(C)(C)C)nc3[C@@H]3CC[C@H](F)C[C@H]3C(=O)NC3(C#N)CC3)cc2)CC1 [Example 14, (1R,2R,5S)-2-(2-(tert-Butyl)-5-(4-(1-(methylimino)-1-oxidothiomorpholino)phenyl)oxazol-4-yl)-N-(1-cyanocyclopropyl)-5-fluorocyclohexanecarboxamide] | ≥ 10000 | 5.2
N#CC1(NC(=O)[C@@H]2CCCC[C@H]2c2nc(Oc3ccccc3)sc2-c2ccc(N3CCS(=O)(=O)CC3)cc2)CC1 [Example 16, (1R,2R)-N-(1-Cyanocyclopropyl)-2-(5-(4-(1,1-dioxidothiomorpholino)phenyl)-2-phenoxythiazol-4-yl)cyclohexanecarboxamide] | 931 | 2.5
Cc1nc([C@@H]2CCCC[C@H]2C(=O)NCC#N)c(-c2ccc(N3CCS(=O)(=O)CC3)cc2)s1 [Example 17, (1R,2R)-N-(cyanomethyl)-2-(5-(4-(1,1-dioxidothiomorpho-lino)phenyl)-2-methylthiazol-4-yl)cyclohexane-carboxamide] | 1140 | 2
CC(C)(C)c1nc([C@@H]2CCCC[C@H]2C(=O)NCC#N)c(-c2ccc(N3CCS(=O)(=O)CC3)cc2)s1 [Example 19, (1R,2R)-2-(2-(tert-butyl)-5-(4-(1,1-dioxidothiomorpho-lino)phenyl)thiazol-4-yl)-N-(cyanomethyl)cyclo-hexanecarboxamide] | 851 | 0.7
CC(C)(C)c1nc([C@@H]2CCCC[C@H]2C(=O)NC2(C#N)CC2)c(-c2ccc(N3CCS(=O)(=O)CC3)cc2)s1 [Example 20, (1R,2R)-2-(2-(tert-butyl)-5-(4-(1,1-dioxidothiomorpho-lino)phenyl)thiazol-4-yl)-N-(1-cyanocyclopropyl) cyclohexanecarbox-amide] | 8630 | 2.7
N#CC1(NC(=O)[C@@H]2CCCC[C@H]2c2nc(CC(F)(F)F)sc2-c2ccc(N3CCS(=O)(=O)CC3)cc2)CC1 [Example 22, (1R,2R)-N-(1-cyanocyclopropyl)-2-(5-(4-(1,1-dioxidothiomorpho-lino)phenyl)-2-(2,2,2-trifluoroethyl)thia-zol-4-yl)cyclohexane-carboxamide] | 8520 | 6.6
N#CC1(NC(=O)[C@@H]2CCCC[C@H]2c2nc(CCC(F)(F)F)sc2-c2ccc(N3CCS(=O)(=O)CC3)cc2)CC1 [Example 24, (1R,2R)-N-(1-cyanocyclopropyl)-2-(5-(4-(1,1-dioxidothiomorpho-lino)phenyl)-2-(3,3,3-trifluoropropyl)thia-zol-4-yl)cyclohexane-carboxamide] | 2230 | 5.6
CC(C)(C)c1nc([C@@H]2CC[C@H](F)C[C@H]2C(=O)NC2(C#N)CC2)c(-c2ccc(N3CCS(=O)(=O)CC3)cc2)s1 [Example 25, (1R,2R,5S)-2-(2-(tert-butyl)-5-(4-(1,1-dioxidothiomorpho-lino)phenyl)thiazol-4-yl)-N-(1-cyanocyclopropyl)-5-fluorocyclohexane-carboxamide] | 9260 | 3.3
N#CC1(NC(=O)[C@@H]2CCCC[C@H]2c2nc(-c3ccc(F)cc3)sc2-c2ccc(N3CCS(=O)(=O)CC3)cc2)CC1 [Example 27, (1R,2R)-N-(1-cyanocyclopropyl)-2-(5-(4-(1,1-dioxidothiomorpho-lino)phenyl)-2-(4-fluorophenyl)thiazol-4-yl)cyclohexane-carboxamide] | 1000 | 0.6
N#CC1(NC(=O)[C@@H]2CCCC[C@H]2c2nc(-c3ccc(F)cc3)sc2-c2ccc(C(=O)N3CCC(O)CC3)cc2)CC1 [Example 34, (1R,2R)-N-(1-cyanocyclopropyl)-2-(2-(4-fluorophenyl)-5-(4-(4-hydroxypiperidine-1-carbonyl)phenyl)thi-azol-4-yl)cyclohexane-carboxamide] | 868 | 101
N#CC1(NC(=O)[C@@H]2CCCC[C@H]2c2nc(-c3ccc(F)cc3)sc2-c2ccc(C(=O)N3CCNC(=O)C3)cc2)CC1 [Example 35, (1R,2R)-N-(1-cyanocyclopropyl)-2-(2-(4-fluorophenyl)-5-(4-(3-oxopiperazine-1-carbonyl)phenyl)thi-azol-4-yl)cyclohexane-carboxamide] | 667 | 64.5
N#CC1(NC(=O)[C@@H]2CCCC[C@H]2c2nc(-c3cccnc3)sc2-c2ccc(N3CCS(=O)(=O)CC3)cc2)CC1 [Example 37, (1R,2R)-N-(1-cyanocyclopropyl)-2-(5-(4-(1,1-dioxidothiomorpho-lino)phenyl)-2-(pyridin-3-yl)thiazol-4-yl)cyclohexane-carboxamide] | 2620 | 0.5

These reach a lower IC50 (human cathepsin F). Values come first.

IC50 (human cathepsin F) [nM] | IC50 (human cathepsin K) [nM] | Structure (SMILES)
124 | 2.4 | CC(C)OC(=O)N1CC(c2ccc(-c3sc(-c4ccc(F)cc4)nc3[C@@H]3CCCC[C@H]3C(=O)NC3(C#N)CC3)cc2)C1 [Example 15, Isopropyl 3-(4-(4-((1R,2R)-2-((1-cyanocyclopropyl)carbamoyl)cyclohexyl)-2-(4-fluorophenyl)thiazol-5-yl)phenyl)azetidine-1-carboxylate]
564 | 1.2 | N#CCNC(=O)[C@@H]1CCCC[C@H]1c1nc(C2CC2)sc1-c1ccc(N2CCS(=O)(=O)CC2)cc1 [Example 18, (1R,2R)-N-(cyanomethyl)-2-(2-cyclopropyl-5-(4-(1,1-dioxidothiomorpho-lino)phenyl)thiazol-4-yl)cyclohexane-carboxamide]
314 | 1.6 | N#CC1(NC(=O)[C@@H]2CC(F)(F)CC[C@H]2c2nc(CC(F)(F)F)sc2-c2ccc(N3CCS(=O)(=O)CC3)cc2)CC1 [Example 21, (1R,2R)-N-(1-cyanocyclopropyl)-2-(5-(4-(1,1-dioxidothiomorpho-lino)phenyl)-2-(2,2,2-trifluoroethyl)thia-zol-4-yl)-5,5-difluorocyclohexane-carboxamide]
223 | 1.1 | N#CC1(NC(=O)[C@@H]2CC(F)(F)CC[C@H]2c2nc(CCC(F)(F)F)sc2-c2ccc(N3CCS(=O)(=O)CC3)cc2)CC1 [Example 23, (1R,2R)-N-(1-cyanocyclopropyl)-2-(5-(4-(1,1-dioxidothiomorpho-lino)phenyl)-2-(3,3,3-trifluoropropyl)thia-zol-4-yl)-5,5-difluorocyclohexane-carboxamide]
35 | 0.3 | N#CC1(NC(=O)[C@@H]2CC(F)(F)CC[C@H]2c2nc(-c3ccc(F)cc3)sc2-c2ccc(N3CCS(=O)(=O)CC3)cc2)CC1 [Example 26, (1R,2R)-N-(1-cyanocyclopropyl)-2-(5-(4-(1,1-dioxidothiomorpho-lino)phenyl)-2-(4-fluorophenyl)thiazol-4-yl)-5,5-difluorocyclohexane-carboxamide]
63 | 2.3 | N#CC1(NC(=O)[C@@H]2CC(F)(F)CC[C@H]2c2nc(-c3ccc(F)cc3)sc2-c2ccc(C(=O)N3CCOCC3)cc2)CC1 [Example 28, (1R,2R)-N-(1-cyanocyclopropyl)-5,5-difluoro-2-(2-(4-fluorophenyl)-5-(4-(morpholine-4-carbonyl)phenyl)thi-azol-4-yl)cyclohexane-carboxamide]
57 | 1.9 | CS(=O)(=O)N1CCN(C(=O)c2ccc(-c3sc(-c4ccc(F)cc4)nc3[C@@H]3CCC(F)(F)C[C@H]3C(=O)NC3(C#N)CC3)cc2)CC1 [Example 29, (1R,2R)-N-(1-cyanocyclopropyl)-5,5-difluoro-2-(2-(4-fluorophenyl)-5-(4-(4-(methylsulfonyl)piperazine-1-carbonyl)phenyl)thi-azol-4-yl)cyclohexane-carboxamide]
51 | 2.2 | N#CC1(NC(=O)[C@@H]2CC(F)(F)CC[C@H]2c2nc(-c3ccc(F)cc3)sc2-c2ccc(C(=O)N3CCNC(=O)C3)cc2)CC1 [Example 30, (1R,2R)-N-(1-cyanocyclopropyl)-5,5-difluoro-2-(2-(4-fluorophenyl)-5-(4-(3-oxopiperazine-1-carbonyl)phenyl)thi-azol-4-yl)cyclohexane-carboxamide]
73 | 3.4 | N#CC1(NC(=O)[C@@H]2CC(F)(F)CC[C@H]2c2nc(-c3ccc(F)cc3)sc2-c2ccc(C(=O)N3CCC(O)CC3)cc2)CC1 [Example 31, (1R,2R)-N-(1-cyanocyclopropyl)-5,5-difluoro-2-(2-(4-fluorophenyl)-5-(4-(4-hydroxypiperidine-1-carbonyl)phenyl)thi-azol-4-yl)cyclohexane-carboxamide]
422 | 65.1 | N#CC1(NC(=O)[C@@H]2CCCC[C@H]2c2nc(-c3ccc(F)cc3)sc2-c2ccc(C(=O)N3CCOCC3)cc2)CC1 [Example 32, (1R,2R)-N-(1-cyanocyclopropyl)-2-(2-(4-fluorophenyl)-5-(4-(morpholine-4-carbonyl)phenyl)thi-azol-4-yl)cyclohexane-carboxamide]
410 | 47 | CS(=O)(=O)N1CCN(C(=O)c2ccc(-c3sc(-c4ccc(F)cc4)nc3[C@@H]3CCCC[C@H]3C(=O)NC3(C#N)CC3)cc2)CC1 [Example 33, (1R,2R)-N-(1-cyanocyclopropyl)-2-(2-(4-fluorophenyl)-5-(4-(4-(methylsulfonyl)piperazine-1-carbonyl)phenyl)thi-azol-4-yl)cyclohexane-carboxamide]
